Assay: Solubility of biocide in water
Assay type: physicochemical
Conditions: in words

O=C(OCc1ccccc1)c1ccc(O)cc1 [benzyl paraoxybenzoate]
solubility in water: poor solubility in water
